Laboratory results: article PMC6625639 (Biochemical pharmacology, 2018)

Key:
SULT1A1 = SULT1A1 (Homo sapiens, UniProt P50225); assay type: biochemical
SULT2A1 = molecular target: T1, SULT2A1 (Homo sapiens, UniProt Q06520); assay type: biochemical
T1 sequence (Q06520 1-285): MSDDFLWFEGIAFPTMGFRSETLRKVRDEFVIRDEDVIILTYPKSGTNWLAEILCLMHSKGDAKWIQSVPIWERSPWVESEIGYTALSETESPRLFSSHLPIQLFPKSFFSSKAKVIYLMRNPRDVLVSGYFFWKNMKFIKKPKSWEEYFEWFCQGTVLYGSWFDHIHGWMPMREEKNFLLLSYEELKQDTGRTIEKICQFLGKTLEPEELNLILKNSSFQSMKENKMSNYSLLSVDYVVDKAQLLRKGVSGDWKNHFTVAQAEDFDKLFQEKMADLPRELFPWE

SULT1A1, sequence (P50225 whole entry): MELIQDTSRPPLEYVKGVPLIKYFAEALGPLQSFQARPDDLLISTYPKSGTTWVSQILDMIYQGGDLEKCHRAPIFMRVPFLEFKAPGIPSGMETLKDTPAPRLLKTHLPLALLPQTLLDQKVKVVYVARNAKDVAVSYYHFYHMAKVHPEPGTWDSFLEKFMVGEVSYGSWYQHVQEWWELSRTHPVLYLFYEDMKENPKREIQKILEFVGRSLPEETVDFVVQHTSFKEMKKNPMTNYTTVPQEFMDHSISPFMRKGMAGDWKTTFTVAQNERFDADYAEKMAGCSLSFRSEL

Work on `Cc1cccc(Nc2ccccc2C(=O)O)c1C` [Mef, Mefenamic acid] yielded a Ki (SULT1A1) of 0.027 µM and a Ki (SULT2A1) of 14 µM.
